This passage reports target mRNA inhibition results from the OligoGym collection.

For the data set, the target named is IRF4. As to conditions: ASO.

Values joined by “and” are separate entries in the source; they are usually repeats but may differ in a detail not shown here. Equal values may be shown once. After the bases stand the sugars from the 5' end (letter, count) and the backbone: PS all phosphorothioate, else s phosphorothioate and o phosphodiester by linkage. Methylation of C is not given here. e = 2'-O-(2-methoxyethyl) (MOE); k = constrained ethyl (cEt); d = 2'-deoxy (DNA)

Take GCATTTTATCATCCGA (sugars k3 d10 k3, PS): the target mRNA inhibition (SK-MEL-28, 4 µM) worked out at 63%. In the case of “GCATTTTATCATCCGA (sugars kkdddddddddkekek, PS)”, where the note is “MM.1R, 1 µM”, the target mRNA inhibition was determined as 48%. With “GCATTTTATCATCCGA (sugars kkkddddddddkekek, PS)”, the target mRNA inhibition (MM.1R, 1 µM) stood at 45%. For GCCAAGGACACCACCT (sugars k3 d10 k3, PS), the target mRNA inhibition (SK-MEL-28, 4 µM) is -2%.

For the sequence GCCAATCAGATGTCAC (sugars k3 d10 k3, PS), where the note is “SK-MEL-28, 4 µM”, the target mRNA inhibition was found to be 46%. In the case of GCCAATGCAACTGAAT (sugars k3 d10 k3, PS), the target mRNA inhibition (SK-MEL-28, 4 µM) came out at 36%. On the same count and under the same terms, in the case of GCCACTGGCGGAGCTT (sugars k3 d10 k3, PS) it was 23%; in that of GCCATGGCTGATCGCT (sugars k3 d10 k3, PS), 30%. On the same count and under the same terms, for GCCCACTGAGTGTGCA (sugars k3 d10 k3, PS) the value was 10%; for GCCCATGAGTTGAAAG (sugars k3 d10 k3, PS), 32%; for GCCCCGAATAGGACCC (sugars k3 d10 k3, PS), 21%. For the sequence GCCCGGCCGGGCCTTC (sugars k3 d10 k3, PS), the target mRNA inhibition (MM.1R, 1 µM) was -4%. With GCCGCTGTCGATCTGG (sugars k4 d8 k4, PS), the target mRNA inhibition (SK-MEL-28, 4 µM) came out at 15%. Same read-out and setting: for GCCGTTCCTTTTCAGA (sugars k3 d10 k3, PS) the value was 62%. On to GCCTAGAGGTGCCTTC (sugars k3 d10 k3, PS), for which the target mRNA inhibition (MM.1R, 1 µM) worked out at 13%.

Turning to GCCTAGCATGGATCCT (sugars k3 d10 k3, PS), for the setting “MM.1R, 1 µM”, the target mRNA inhibition was -4%. Consider GCCTGAGTTACCGCAT (sugars k3 d10 k3, PS), for which the target mRNA inhibition reads like this: (MM.1R, 0.0625 µM) -1%; (MM.1R, 0.074 µM) -3%; (MM.1R, 0.222 µM) -5%; (MM.1R, 0.25 µM) 0%; (MM.1R, 0.666 µM) -9%; (MM.1R, 1 µM) 13%. The target mRNA inhibition runs as follows: (MM.1R, 2 µM) 5%; (MM.1R, 4 µM) 41%; (SK-MEL-28, 4 µM) 70%. Turning to GCCTGGGAGTCCCCGG (sugars k3 d10 k3, PS), the target mRNA inhibition (SK-MEL-28, 4 µM) is 18%. On the same count and under the same terms, in the case of GCCTTAATGTTCAGCT (sugars k3 d10 k3, PS) it was 49%. The same measure, in the same setting: for GCCTTGAAGAGCGCGG (sugars k3 d10 k3, PS) the value was 9%. GCGAAGAATTTTAGCA (sugars k3 d10 k3, PS): where the note is “SK-MEL-28, 4 µM”, the target mRNA inhibition was found to be 12%.

As for GCGCAAGTCTACAGCC (sugars k3 d10 k3, PS), the target mRNA inhibition (SK-MEL-28, 4 µM) is -20%. Take GCGCGGAGGGCAGGCG (sugars k3 d10 k3, PS): for the setting “MM.1R, 1 µM”, the target mRNA inhibition is -32%. Still for that read-out and setting: in the case of GCGGACGCACGGAGAG (sugars k3 d10 k3, PS) it was -9%. For the sequence GCGGAGGTTCCTTGAG (sugars k3 d10 k3, PS), the target mRNA inhibition (SK-MEL-28, 4 µM) is 44%. For GCGGGCACAGCCGTCC (sugars k3 d10 k3, PS), the target mRNA inhibition (MM.1R, 1 µM) was -21%. With GCTAAACCCAAAATAC (sugars k3 d10 k3, PS), where the note is “SK-MEL-28, 4 µM”, the target mRNA inhibition was determined as 4%. Same read-out and setting: in the case of GCTAAACTCCTAAGTA (sugars k3 d10 k3, PS) it was 30%; in that of GCTAAAGAACACTGCT (sugars k3 d10 k3, PS), 3%. The same measure, in the same setting: for GCTACAAAGAGCACTG (sugars k3 d10 k3, PS) the value was 63%; for GCTATCAGGATCTCAA (sugars k3 d10 k3, PS), 38%. With GCTCACCGCGCTCATG (sugars k3 d10 k3, PS), the target mRNA inhibition (SK-MEL-28, 4 µM) was determined as 48%.

On to GCTCAGCATGCAAGCC (sugars k3 d10 k3, PS), for which the target mRNA inhibition (SK-MEL-28, 4 µM) is 0%. On the same count and under the same terms, in the case of GCTCATGCCGAACTCT (sugars k4 d8 k4, PS) it was 30%; in that of GCTCATGTTTTTTGAC (sugars k3 d10 k3, PS), 56%; in that of GCTCATTTCACTGTAG (sugars k3 d10 k3, PS), 64%.

For the sequence GCTGCCACTGGTAACT (sugars k3 d10 k3, PS), the target mRNA inhibition (SK-MEL-28, 4 µM) was 26%. Still for that read-out and setting: in the case of GCTGTTTATTTCCTAC (sugars k3 d10 k3, PS) it was 66%; in that of GCTTGAGGTTTTCCTA (sugars k3 d10 k3, PS), 77%; in that of GGAAAGAGCTTTGGTG (sugars k3 d10 k3, PS), 12%.

As to GGAAATACGACAACTT (sugars k3 d10 k3, PS), where the note is “SK-MEL-28, 4 µM”, the target mRNA inhibition was 63%. As for GGAACGAAGAGCAGGG (sugars k3 d10 k3, PS), the target mRNA inhibition (MM.1R, 1 µM) was found to be 12%. The same measure, in the same setting: in the case of GGAACTCCCGAGGGCA (sugars k3 d10 k3, PS) it was 13%.

As for “GGAAGTTTACACTGGA (sugars e1 k2 d9 k2 e2, PS)”, the target mRNA inhibition runs as follows: (H929, 0.04 µM) 38% and 36%; (KMS11, 0.2 µM) 75% and 80%; (MM.1R, 0.074 µM) 13%; (MM.1R, 0.222 µM) 35%; (MM.1R, 0.666 µM) 66%; (MM.1R, 1 µM) 55%. The target mRNA inhibition (MM.1R, 2 µM) was 87%.

As for “GGAAGTTTACACTGGA (sugars k3 d9 k3 e1, PS)”, the target mRNA inhibition reads like this: (MM.1R, 0.074 µM) 20%; (MM.1R, 0.222 µM) 45%; (MM.1R, 0.666 µM) 77%; (MM.1R, 1 µM) 78%; (MM.1R, 2 µM) 91%. For “GGAAGTTTACACTGGA (sugars kkdddddddddekeke, PS)” the same measures were 4%, 15%, 40%, 64% and 64%. For the sequence “GGAAGTTTACACTGGA (sugars kkdddddddddkdkdk, PS)”, under “MM.1R, 1 µM”, the target mRNA inhibition came to 24%. Same read-out and setting: for “GGAAGTTTACACTGGA (sugars kkdddddddddkekek, PS)” the value was 47%. “GGAAGTTTACACTGGA (sugars kkkdddddddddkeke, PS)”: the target mRNA inhibition runs as follows: (MM.1R, 0.074 µM) 22%; (MM.1R, 0.222 µM) 46%; (MM.1R, 0.666 µM) 74%; (MM.1R, 1 µM) 78%; (MM.1R, 2 µM) 91%. “GGAAGTTTACACTGGA (sugars kkkddddddddkekek, PS)”: the target mRNA inhibition (MM.1R, 1 µM) was 43%. Take GGACACTTTTAGAGAG (sugars k3 d10 k3, PS): the target mRNA inhibition (SK-MEL-28, 4 µM) was 62%. GGACATTGGTACGGGA (sugars k3 d10 k3, PS): the target mRNA inhibition (SK-MEL-28, 4 µM) worked out at 50%.

Take GGACCACATCTAATCC (sugars k3 d10 k3, PS): the target mRNA inhibition (MM.1R, 1 µM) is -12%. Same read-out and setting: for GGACTAAGGACAGCTG (sugars k3 d10 k3, PS) the value was 13%; for GGACTCCGGGAGCCTG (sugars k3 d10 k3, PS), -8%. Consider GGAGACACATACATTT (sugars k3 d10 k3, PS), for which the target mRNA inhibition (SK-MEL-28, 4 µM) turned out to be 22%. GGAGATACTTGTACTG (sugars k3 d10 k3, PS): the target mRNA inhibition by setting is: (MM.1R, 0.0625 µM) 2%; (MM.1R, 0.074 µM) 16%; (MM.1R, 0.222 µM) 25%; (MM.1R, 0.25 µM) 26%; (MM.1R, 0.666 µM) 48%; (MM.1R, 1 µM) 55%. The target mRNA inhibition reads like this: (MM.1R, 2 µM) 77%; (MM.1R, 4 µM) 87%; (SK-MEL-28, 4 µM) 66%. As to GGAGTGATCTCTGTGG (sugars k3 d10 k3, PS), the target mRNA inhibition (SK-MEL-28, 4 µM) came to 68%. In the case of GGAGTGCAGGAGAGGC (sugars k3 d10 k3, PS), the target mRNA inhibition (SK-MEL-28, 4 µM) was determined as 16%. The same measure, in the same setting: in the case of GGATAGATCTGTGGTA (sugars k3 d10 k3, PS) it was 49%; in that of GGATTTCCGGGTGTGG (sugars k3 d10 k3, PS), 61%; in that of GGCAACAGTTCAAGTA (sugars k3 d10 k3, PS), 57%. GGCACAATTCTCTGAG (sugars k3 d10 k3, PS): under “SK-MEL-28, 4 µM”, the target mRNA inhibition stood at 43%. In the case of GGCACATCAATGTTTT (sugars k3 d10 k3, PS), the target mRNA inhibition (MM.1R, 1 µM) is 18% and 14%. The same measure, in the same setting: in the case of “GGCACATCAATGTTTT (sugars kdddddddddkekeke, PS)” it was 9% and 6%. As for GGCACATGAGAAATCA (sugars k3 d10 k3, PS), the target mRNA inhibition (SK-MEL-28, 4 µM) came out at 33%. Turning to GGCAGTTGTGCCGTCT (sugars k3 d10 k3, PS), the target mRNA inhibition (MM.1R, 1 µM) is -17%.

With GGCATACAGTGTGATT (sugars k3 d10 k3, PS), the target mRNA inhibition (SK-MEL-28, 4 µM) was determined as 25%. Same read-out and setting: for GGCCCTGTCAAACTAT (sugars k3 d10 k3, PS) the value was 40%.

With GGCCTCCCCAAGGCTA (sugars k3 d10 k3, PS), the target mRNA inhibition (SK-MEL-28, 4 µM) turned out to be 18%.

As to GGCCTCTGAGCAGAAC (sugars k3 d10 k3, PS), the target mRNA inhibition (SK-MEL-28, 4 µM) is 27%.

As to GGCCTGAAGCTTAGTT (sugars k3 d10 k3, PS), the target mRNA inhibition (MM.1R, 1 µM) was -5% and 6%. As for GGCGAGTGGCGGGTAG (sugars k3 d10 k3, PS), the target mRNA inhibition (SK-MEL-28, 4 µM) came out at 8%. Still for that read-out and setting: for GGCTAAACCTGGCACC (sugars k3 d10 k3, PS) the value was 40%; for GGCTACAGGCACGGCT (sugars k3 d10 k3, PS), 42%; for GGCTAGCAGAGGTTCT (sugars k3 d10 k3, PS), 51%. On the same count and under the same terms, for GGCTAGCTGTATTTAT (sugars k3 d10 k3, PS) the value was 37%; for GGCTCCCTCAGGAACA (sugars k3 d10 k3, PS), 19%. On the same count and under the same terms, for GGCTCCTACATGTTTG (sugars k3 d10 k3, PS) the value was -46%. As to GGCTCTTGATGTGAAC (sugars k3 d10 k3, PS), the target mRNA inhibition (MM.1R, 1 µM) was -12%.

For GGGAATCCCTTATTAG (sugars k3 d10 k3, PS), where the note is “MM.1R, 1 µM”, the target mRNA inhibition amounted to 0%.
